Data from US20170216252A1, “ANTI-BACTERIAL PYRUVATE KINASE MODULATOR COMPOUNDS, COMPOSITIONS, USES AND METHODS” (SIMON FRASER UNIVERSITY, priority 2014, published 2017).
Converted amounts (≈) assume the structure as drawn. Like-named read-outs stand apart in the source and are kept apart here.

Experiments:
MRSA PK = molecular target: T1, MRSA PK (Staphylococcus aureus, UniProt Q6GG09); assay: MRSA PK activity, continuous LDH-coupled assay; assay type: biochemical, S. aureus (MRSA strain Sanger 252); conditions: for inhibition at 10 µM / inhibition at 1 µM: read-out: % inhibition at the highest concentration tested (IC50)
T1 construct: His tag (pET-28a(+) vector) (N); made in house; host or cells: E. coli BL-21 (DE3)
T1 sequence (Q6GG09 whole entry): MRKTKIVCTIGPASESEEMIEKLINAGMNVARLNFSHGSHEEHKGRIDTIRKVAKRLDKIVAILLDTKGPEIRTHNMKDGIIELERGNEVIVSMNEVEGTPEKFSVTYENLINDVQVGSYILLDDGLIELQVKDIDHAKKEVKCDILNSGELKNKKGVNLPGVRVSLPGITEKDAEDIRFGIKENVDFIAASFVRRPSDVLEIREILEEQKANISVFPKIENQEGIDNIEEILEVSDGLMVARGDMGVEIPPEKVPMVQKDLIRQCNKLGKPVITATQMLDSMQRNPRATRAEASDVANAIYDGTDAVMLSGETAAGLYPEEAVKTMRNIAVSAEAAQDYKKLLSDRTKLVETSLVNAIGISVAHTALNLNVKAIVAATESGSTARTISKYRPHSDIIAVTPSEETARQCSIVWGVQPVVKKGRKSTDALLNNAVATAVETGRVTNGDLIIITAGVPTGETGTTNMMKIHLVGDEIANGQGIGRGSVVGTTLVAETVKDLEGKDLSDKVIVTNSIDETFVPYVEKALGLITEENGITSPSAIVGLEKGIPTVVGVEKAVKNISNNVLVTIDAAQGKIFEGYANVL
Summary of the method: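 Activity was tracked as the 340 nm absorbance fall from NADH oxidation via coupled LDH, at 30 °C for ≤5 min. Reactions began on adding 15 nM recombinant His-tagged S. aureus PK, with inhibitor DMSO kept ≤1%. Four-parameter dose–response fitting gave IC50.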

S. aureus ATCC 29213 = assay: In vitro susceptibility, broth microdilution MIC; assay type: cell-based, Staphylococcus aureus
Summary of the method: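 The MIC against S. aureus 29213 was determined by CLSI 2-fold serial broth microdilution in Mueller Hinton broth. Plates were incubated for 18–24 h at 37 °C and read at OD600 with background subtracted. The MIC was the lowest concentration giving complete growth inhibition versus compound-free wells.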

[1] = Staphylococcus aureus, ATCC29213, Table 8, tested at least in duplicate, differing values all given, read-out: MIC
[2] = Staphylococcus aureus, ATCC29213, Tables 1-6 and text, minimum concentration to give >98% inhibition of growth, read-out: MIC
[3] = Tables 1-6, 2 mM ADP, 10 mM PEP, 15 nM PK, read-out: IC50

SMILES	IC50 (MRSA PK) [nM]	MIC (S. aureus ATCC 29213; [1]) [µg/mL]	MIC (S. aureus ATCC 29213; [2]) [µg/mL]	other results
O=C(O)c1c(-c2cc3cc(Cl)ccc3[nH]2)[nH]c2cc(Br)ccc12 [Compound 162, 6-bromo-5′-chloro-1H,1′H-[2,2′-biindole]-3-carboxylic acid]	< 50	4 (≈ 10.3 µM)		
O=C(Nc1nc2ccccc2s1)c1cc(Br)ccc1O [Compound 56]			> 64	inhibition at 10 µM (MRSA PK): 76%
CC(=O)c1c(CCc2ccc(Cl)cc2)[nH]c2cc(Br)ccc12 [Compound 39b, 1-(6-bromo-2-(4-chlorophenethyl)-1H-indol-3-yl)ethanone]	28		4 (≈ 10.6 µM)	
COC(=O)c1c(C(=O)Nc2ccc(Cl)cc2)[nH]c2cc(Br)ccc12 [Compound 130, Methyl 6-bromo-2-((4-chlorophenyl)carbamoyl)-1H-indole-3-carboxylate]	< 50	> 64		
O=C(c1c(/C=C/c2ccc(Br)cn2)[nH]c2cc(Br)ccc12)C(F)(F)F [Compound 174, (E)-1-(6-Bromo-2-(2-(5-bromopyridin-2-yl)vinyl)-1H-indol-3-yl)-2,2,2-trifluoroethanone]	> 1000	32 (≈ 67.5 µM)		
O=C(c1c(CCc2cc(Cl)cc(Cl)c2)[nH]c2cc(Br)ccc12)C(F)(F)F [Compound 171, 1-(6-Bromo-2-(3,5-dichlorophenethyl)-1H-indol-3-yl)-2,2,2-trifluoroethanone]	> 1000	1 (≈ 2.15 µM)		
COc1c(Br)cccc1C(=O)Nc1nc2ccc(Br)cc2s1 [Compound 84, 3-Bromo-N-(6-bromobenzo[d]thiazol-2-yl)-2-methoxybenzamide]			> 64	inhibition at 10 µM (MRSA PK): 84%
O=C(Nc1nc2ccc(Br)cc2[nH]1)c1cc2cc(Br)ccc2[nH]1 [Compound 79, 5-bromo-N-(6-bromo-1H-benzo[d]imidazol-2-yl)-1H-indole-2-carboxamide]	3.5		> 64	
COC(=O)c1c(C(=O)Nc2ccc(OC)cc2)[nH]c2cc(Br)ccc12 [Compound 133, Methyl 6-bromo-2-((4-methoxyphenyl)carbamoyl)-1H-indole-3-carboxylate]	< 50	> 64		
O=C(O)c1c(/C=C/c2cc(Cl)cc(Cl)c2)[nH]c2cc(Br)ccc12 [Compound 150, (E)-6-Bromo-2-(3,5-dichlorostyryl)-1H-indole-3-carboxylic acid]	> 1000	8 (≈ 19.5 µM)		
Brc1ccc2cc(-c3ccc(-c4cc5ccc(Br)cc5[nH]4)nn3)[nH]c2c1 [Compound 49, 3,6-bis(6-Bromo-1H-indol-2-yl)pyridazine]			> 32	inhibition at 10 µM (MRSA PK): 70%
O=C(c1c(-c2cc3ccccc3[nH]2)[nH]c2cc(Br)ccc12)C(F)(F)F [Compound 177, 1-(6-bromo-1H,1′H-[2,2′-biindol]-3-yl)-2,2,2-trifluoroethan-1-one]	> 1000	2 (≈ 4.91 µM)		MIC (S. aureus ATCC 29213; Table 8, tested at least in duplicate, differing values all given): 1 µg/mL (≈ 2.46 µM)
O=C(c1c(C#Cc2ncccn2)[nH]c2cc(Br)ccc12)C(F)(F)F [Compound 169, 1-(6-Bromo-2-(pyrimidin-2-ylethynyl)-1H-indol-3-yl)-2,2,2-trifluoroethanone]	> 100000	> 64		
O=C(Nc1ccc(Cl)cc1)c1cc2ccc(Br)cc2[nH]1 [Compound 128, 6-bromo-N-(4-chlorophenyl)-1H-indole-2-carboxamide]	17	> 64		
C(=C\c1cc2ccccc2[nH]1)/c1cc2ccccc2[nH]1 [Compound 44]			> 64	inhibition at 10 µM (MRSA PK): 63%
O=C(Nc1nc2ccc(Br)cc2s1)c1cccc(Cl)c1O [Compound 83, N-(6-bromobenzo[d]thiazol-2-yl)-3-chloro-2-hydroxybenzamide]			4 (≈ 10.4 µM)	inhibition at 1 µM (MRSA PK): 89%
O=C(Nc1cc(Br)ccc1O)c1cc2ccc(Br)cc2[nH]1 [Compound 62, 6-Bromo-N-(5-bromo-2-hydroxyphenyl)-1H-indole-2-carboxamide]	12.3		> 64	
Clc1ccc(CCc2cc3ccc(Br)cc3[nH]2)cn1 [Compound 120, 6-Bromo-2-(2-(6-chloropyridin-3-yl)ethyl)-1H-indole]	50 to 100	> 64		
COC(=O)c1c(C(=O)Nc2ccc(Br)cc2)[nH]c2cc(Br)ccc12 [Compound 131, Methyl 6-bromo-2-((4-bromophenyl)carbamoyl)-1H-indole-3-carboxylate]		> 64		EC50 (MRSA PK): 15 nM
Brc1ccc2[nH]c(-c3ccc(-c4cc5cc(Br)ccc5[nH]4)s3)cc2c1 [Compound 43, 2,5-bis(5-Bromo-1H-indol-2-yl)thiophene]			> 64	inhibition at 10 µM (MRSA PK): 50%
FC(F)(F)c1ccc(/C=C/c2cc3ccc(Br)cc3[nH]2)cc1 [Compound 102, (E)-6-Bromo-2-(4-(trifluoromethyl)styryl)-1H-indole]	100 to 1000	64 (≈ 175 µM)		

SMILES	IC50 (MRSA PK) [nM]	MIC (S. aureus ATCC 29213; [1]) [µg/mL]	MIC (S. aureus ATCC 29213; [2]) [µg/mL]	other results
COC(=O)c1c(C(=O)Nc2ccc(Cl)cn2)[nH]c2cc(Br)ccc12 [Compound 137, Methyl 6-bromo-2-((5-chloropyridin-2-yl)carbamoyl)-1H-indole-3-carboxylate]		> 64		EC50 (MRSA PK): 13.2 nM
Oc1ccc(Br)cc1/C=N/c1nc2ccc(Br)cc2s1 [Compound 58]			64 (≈ 155 µM)	inhibition at 10 µM (MRSA PK): 77%
O=C(c1c(CCc2ccc(Cl)nc2)[nH]c2cc(Br)ccc12)C(F)(F)F [Compound 173, 1-(6-Bromo-2-(2-(6-chloropyridin-3-yl)ethyl)-1H-indol-3-yl)-2,2,2-trifluoroethanone]	> 1000	> 64		
Brc1ccc2cc(CNCc3ccccc3)[nH]c2c1 [Compound 146, N-Benzyl-1-(6-bromo-1H-indol-2-yl)methanamine]	> 1000	32 (≈ 102 µM)		
Brc1ccc(-c2c[nH]c3cc(Br)ccc23)cc1 [Compound 57, 6-bromo-3-(4-bromophenyl)-1H-indole]			2 (≈ 5.7 µM)	IC50 (MRSA PK; [3]): 102 nM
Brc1ccc2cc(-c3ccc(-c4cc5ccc(Br)cc5[nH]4)cc3)[nH]c2c1 [Compound 33a, 1,4-bis(6-bromo-1H-indol-2-yl)benzene]			> 64	inhibition at 1 µM (MRSA PK): 54%
O=C(Nc1ccc(Cl)cc1)c1[nH]c2cc(Br)ccc2c1C(=O)O [Compound 129, 6-Bromo-2-((4-chlorophenyl)carbamoyl)-1H-indole-3-carboxylic acid]	< 50	16 (≈ 40.6 µM)		
Brc1ccc(-c2ccc(-c3cncc(-c4cc5ccccc5[nH]4)n3)cc2)cc1 [Compound 61, 2-(6-(4′-Bromo-[1,1′-biphenyl]-4-yl)pyrazin-2-yl)-1H-indole]			> 64	inhibition at 0.1 µM (MRSA PK; read-out: % inhibition (IC50)): 61%
Brc1ccc2cc(CSCc3ccccc3)[nH]c2c1 [Compound 149, 2-((Benzylthio)methyl)-6-bromo-1H-indole]	> 1000	> 64		
O=C(Nc1nc2cc(Br)ccc2s1)c1cc2cc(Br)ccc2[nH]1 [Compound 77, 5-Bromo-N-(5-bromobenzo[d]thiazol-2-yl)-1H-indole-2-carboxamide]	8.2		> 64	
Brc1ccc2cc(/C=C/c3ccc(-n4ccnc4)cc3)[nH]c2c1 [Compound 104, (E)-2-(4-(1H-Imidazol-1-yl)styryl)-6-bromo-1H-indole]	> 1000	> 64		
Brc1cncc(CCc2cc3ccc(Br)cc3[nH]2)c1 [Compound 121, 6-Bromo-2-(2-(5-bromopyridin-3-yl)ethyl)-1H-indole]	> 1000	> 64		
O=C(c1cc2ccc(Br)cc2[nH]1)c1cc2ccccc2cc1O [Compound 42, (6-Bromo-1H-indol-2-yl)(3-hydroxynaphthalen-2-yl)methanone]			> 64	inhibition at 10 µM (MRSA PK): 72%
O=[N+]([O-])c1cc(/C=C/c2cc3ccc(Br)cc3[nH]2)ccc1Cl [Compound 97, (E)-6-Bromo-2-(4-chloro-3-nitrostyryl)-1H-indole]		> 64		EC50 (MRSA PK): 8.6 nM
Clc1cc(Cl)cc(CCc2cc3ccc(Br)cc3[nH]2)c1 [Compound 119, 6-Bromo-2-(3,5-dichlorophenethyl)-1H-indole]	> 100000	> 64		
O=C(Nc1nc2cc(Br)ccc2s1)c1cc2ccccc2[nH]1 [Compound 53, N-(5-Bromobenzo[d]thiazol-2-yl)-1H-indole-2-carboxamide]			> 64	IC50 (MRSA PK; [3]): 50.9 nM
Brc1ccc(-c2cccc(-c3cc4ccccc4[nH]3)c2)cc1 [Compound 59, 2-(4′-Bromo-[1,1′-biphenyl]-3-yl)-1H-indole]			> 64	inhibition at 10 µM (MRSA PK): 54%
COC(=O)c1cc(Br)cc2[nH]c(/C=C/c3ccc(Cl)cc3)cc12 [Compound 157, (E)-Methyl 6-bromo-2-(4-chlorostyryl)-1H-indole-4-carboxylate]	> 1000	> 64		
Cn1c(C(=O)Nc2nc3ccc(Br)cc3s2)cc2ccccc21 [Compound 69, N-(6-Bromobenzo[d]thiazol-2-yl)-1-methyl-1H-indole-2-carboxamide]			> 64	inhibition at 10 µM (MRSA PK): 61%
Brc1ccc2cc(C#Cc3cc4ccc(Br)cc4[nH]3)[nH]c2c1 [Compound 25b, 1,2-Bis(6-bromo-1H-indol-2-yl)ethyne]			> 64	IC50 (MRSA PK; [3]): 2.4 nM
Brc1cncc(/C=C/c2cc3ccc(Br)cc3[nH]2)c1 [Compound 100, (E)-6-Bromo-2-(2-(5-bromopyridin-3-yl)vinyl)-1H-indole]	> 1000	> 64		
